From patent publication US20110166191A1, “3-(2-amino-ethyl)-5-(3-cyclohexyl-propylidene)-thiazolidine-2,4-dione and its derivatives as multiple signaling pathway inhibitors and for the treatment of cancer” (priority 2010, published 2011)

Legend:
DU145 = assay: Cell viability assay; assay type: cell-based; details: Homo sapiens, DU-145, DU145 cells, 24 hrs, read-out: Inhibition of cancer cell proliferation IC50
Experimental: (§1) Cells were cultured at a density of 5×10^4 (U937) or 1×10^4 (PC-3, DU145, M12, HT29) cells per well in flat bottomed 96-well plates and treated with various concentrations of test compound at 37° C. (5% CO2). After 24 h, 20 μL of CellTiter 96® Aqueous One Solution Reagent (Promega, Madison, Wis.) was added to each well according to the manufacturer's instructions. After 1 hour, the cell viability was determined by measuring the absorbance at 490 nm using a micro-plate reader.

HT29 = assay: Cell viability assay; assay type: cell-based; details: Homo sapiens, HT-29, HT29 cells, 24 hrs, read-out: Inhibition of cancer cell proliferation IC50
Experimental: as §1

M12 = assay: Cell viability assay; assay type: cell-based; details: M12 cells, 24 hrs, read-out: Inhibition of cancer cell proliferation IC50
Experimental: as §1

PC-3 = assay: Cell viability assay; assay type: cell-based; details: Homo sapiens, PC-3 cells, 24 hrs, read-out: Inhibition of cancer cell proliferation IC50
Experimental: as §1

U937 = assay: Cell viability assay; assay type: cell-based; details: Homo sapiens, U-937, U937 cells, 24 hrs, read-out: Inhibition of cancer cell proliferation IC50
Experimental: as §1

phosphorylation of ERK = assay: Western blot analysis of p-ERK in U937 cells; assay type: cell-based; details: 3 μM, PMA/TPA 200 nM stimulation
Experimental: (§2) FIG. 1. U937 cells were treated with Formula II prepared as described in Example 4 [i.e. 3-(2-aminoethyl)-5-(3-cyclohexylpropylidene)thiazolidine-2,4-dione] for 1 h, then stimulated with PMA (200 nM) for 30 min. Lysates were analyzed for p-Akt, p-MEK, p-ERK and α-tubulin by western blot analysis.
(§3) Cells (5×10^5 per ml) were treated with various concentrations of test compound at 37° C. (5% CO2) for 3 hrs, then stimulated with TPA at a final concentration of 200 nM for 20 min. Samples from whole-cell pellets were prepared and 30 μg protein for each condition was subjected to SDS-PAGE, transferred onto a PVDF membrane, and blocked with 5% fat-free milk for 30 min. The membrane is probed with primary antibodies overnight at 4° C. followed by incubation with horseradish peroxidase-labeled anti-mouse IgG (1:5000, BD Biosciecne). The immunoreactive bands are detected by chemiluminescence methods (Pierce) and visualized on Kodak Omat film. The following primary antibodies were used: phospho-p44/42 MAPK (ERK1/2, Thr202/Tyr204), p44/42 MAPK, phospho-p90RSK (Thr359/Ser363), RSK1/RSK2/RSK3 (Cell Signaling). Blots were reprobed with antibodies against α-tubulin to ensure equal loading and transfer of proteins.

phosphorylation of Akt = assay: Western blot analysis of p-Akt in U937 cells; assay type: cell-based; details: PMA/TPA 200 nM stimulation
Experimental: as §2, §3

DU145 cells = assay: Cell apoptosis assay (annexin V/PI flow cytometry); assay type: cell-based; details: 24 hrs
Experimental: (§4) FIG. 2. Indicated cancer cells were treated with Formula II synthesized as described in Example 4, 3-(2-aminoethyl)-5-(3-cyclohexylpropylidene)thiazolidine-2,4-dione, at indicated concentrations for 24 hrs, then stained with Annexin-V/PI and analyzed by flow cytometry.
(§5) Apoptosis was measured by flow cytometry using annexin V/propidium iodide (PI) as staining reagent. Briefly, after treatment with test compound of varying concentrations for varying intervals (4, 8, 18, 36 hrs), cells were washed twice with cold PBS and then resuspended in 1× binding buffer (10 mM HEPES [N-2-hydroxyethylpiperazine-N′-2-ethanesulfonic acid]/NaOH, pH 7.4, 140 mM […], 2.5 mM CaCl2). The cells were then incubated with annexin V-fluorescein isothiocyanate (FITC) (BD PharMingen, San Diego, Calif.) and 5 μg/mL propidium iodide (PI), and incubated for 15 minutes at room temperature in the dark per the manufacturer's instructions. The samples were analyzed by flow cytometry using a Becton Dickinson FACScan (Becton Dickinson, San Jose, Calif.) within 1 hr to determine the percentage of cells displaying annexin V staining (early apoptosis) or both annexin V and PI staining (late apoptosis).

M12 cells = assay: Cell apoptosis assay (annexin V/PI flow cytometry); assay type: cell-based; details: 24 hrs
Experimental: as §4, §5

U937 cells [1] = assay: Cell apoptosis assay (annexin V/PI flow cytometry); assay type: cell-based; details: 24 hrs
Experimental: as §4, §5

U937 cells [2] = assay: Cell cycle analysis (PI flow cytometry); assay type: cell-based; details: 24 h
Experimental: FIG. 3. Effects of Formula II and Formula III on U937 cell cycle. Cells were treated with compounds prepared as described in Examples 4 and 8 [i.e. 3-(2-aminoethyl)-5-(3-cyclohexylpropylidene)thiazolidine-2,4-dione and 3-(2-aminoethyl)-5-(3-phenyl-propylidene)-thiazolidine-2,4-dione, respectfully] for 24 hrs, then cells were stained with PI and analyzed by flow cytometry.
After treatment of cells with test compound of varying concentrations for 24 hrs, cells were pelleted at 4° C., resuspended, fixed at 4° C. with 67% ethanol overnight, and treated on ice with a PI solution containing 3.8 mM Na citrate, 0.5 mg/mL RNase A (Sigma Chemical Co.), and 0.01 mg/mL PI (Sigma) for 3 hrs. Cell cycle analysis was performed by flow cytometry using Verity Winlist software (Topsham, Me.).

B16F10 melanoma cells = assay: Reduction of murine B16F10 melanoma lung nodules in mice; assay type: in vivo, B6C3F1 mice; details: 20 mg/kg daily gavage
Experimental: FIG. 5. […] Female B6C3F1 mice (10-11/group) were injected with 2×10^5 B16F10 melanoma cells (i.v.), and treatment with 20 mg/kg dose daily (gavage) was started one day before the tumor cell injection and stopped at day 15 after tumor injection. Mice were sacrificed at day 18 and lungs were removed for counting and observation.
Female B6C3F1 mice (10-11/group) were injected with 2×10^5 B16F10 melanoma cells (i.v.), and treatment with the compound produced as described in Example 4i.e. 3-(2-aminoethyl)-5-(3-cyclohexylpropylidene)thiazolidine-2,4-dione, 20 mg/kg dosage daily (gavage) was started one day before the tumor cell injection and stopped at day 15 after tumor injection. Mice were sacrificed at day 18 and lungs were removed for counting and observation.

Toxicity studies in mice = assay type: in vivo; details: B6C3F1 mice, orally 30 mg/kg, 50 mg/kg and 80 mg/kg, 21 days
Experimental: Female B6C3F1 mice (12/group) were given example 4 orally at 30 mg/kg, 50 mg/kg and 80 mg/kg dosage or example 820 mg/kg orally for 21 days.

SMILES: NCCN1C(=O)S/C(=C\CCC2CCCCC2)C1=O [Example 4, 3-(2-aminoethyl)-5-(3-cyclohexylpropylidene)thiazolidine-2,4-dione]
- IC50 (DU145): 4.8 µM
- IC50 (HT29): 17.9 µM
- IC50 (M12): 4.51 µM
- IC50 (PC-3): 4.46 µM
- IC50 (U937): 2.21 µM
- phosphorylation of ERK (p-ERK, western blot) (phosphorylation of ERK): significantly inhibited the phosphorylation of ERK
- phosphorylation of Akt (p-Akt, western blot) (phosphorylation of Akt): dose dependently inhibited the phosphorylation of Akt
- apoptosis (Annexin-V/PI) (DU145 cells): minimal apoptotic effects
- apoptosis (Annexin-V/PI) (M12 cells): significantly and dose-dependently induced apoptosis
- apoptosis (Annexin-V/PI) (U937 cells [1]): significantly and dose-dependently induced apoptosis
- effect on cell cycle (U937 cells [2]): arrested U937 cells at G2/M phase
- lung tumor nodules (B16F10 melanoma cells; B6C3F1 mice, B16F10 melanoma cells i.v., lungs at day 18): decreased the lung tumor nodules
- oral bioavailability (in words) (B16F10 melanoma cells; mice): orally bioavailable
- effects on general health and body weight (Toxicity studies in mice): no effects on general health and body weight were observed
